Reference: PubChem BioAssay (NCI)
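Exposure lasted 48 hours, with cells grown in 96-well plates and compounds tested at five concentrations. Abbreviation: GI50, concentration required for 50% inhibition of growth. The concentration for full growth arrest is given as TGI.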

Assays:
Assay in all cases: DTP human tumour cell line panel, 48 h
[1] = test system: 786-0 renal
[2] = test system: A498 renal
[3] = test system: ACHN renal
[4] = test system: BT-549 breast
[5] = test system: CAKI-1 renal
[6] = test system: CCRF-CEM leukemia
[7] = test system: DU-145 prostate
[8] = test system: EKVX NSCLC
[9] = test system: HCT-116 colon
[10] = test system: HCT-15 colon
[11] = test system: HL-60(TB) leukemia
[12] = test system: HOP-62 NSCLC
[13] = test system: HT29 colon
[14] = test system: K-562 leukemia
[15] = test system: KM12 colon
[16] = test system: LOX IMVI melanoma
[17] = test system: M14 melanoma
[18] = test system: MDA-MB-231 breast
[19] = test system: MDA-MB-435
[20] = test system: MOLT-4 leukemia
[21] = test system: NCI-H226 lung
[22] = test system: NCI-H23 lung
[23] = test system: NCI-H460 lung
[24] = test system: NCI/ADR-RES ovarian
[25] = test system: OVCAR-3 ovarian
[26] = test system: OVCAR-4 ovarian
[27] = test system: OVCAR-5 ovarian
[28] = test system: PC-3 prostate
[29] = test system: RPMI-8226 leukemia
[30] = test system: SF-268 CNS
[31] = test system: SF-295 CNS
[32] = test system: SF-539 CNS
[33] = test system: SK-MEL-28 melanoma
[34] = test system: SK-MEL-5 melanoma
[35] = test system: SK-OV-3 ovarian
[36] = test system: SN12C renal
[37] = test system: SNB-19 CNS
[38] = test system: SNB-75 CNS
[39] = test system: SW-620 colon
[40] = test system: T-47D breast
[41] = test system: TK-10 renal
[42] = test system: U251 CNS
[43] = test system: UACC-62 melanoma
[44] = test system: UO-31 renal

Compound: Cc1sc2nc(-c3ccncc3)c(/C=N/N=C(N)N)n2c1C
- GI50 [1]: 32.2 µM
- TGI [1]: 92.1 µM
- GI50 [2]: 25.8 µM
- TGI [2]: > 100 µM
- GI50 [3]: 49.7 µM
- TGI [3]: > 100 µM
- GI50 [4]: 73.5 µM
- TGI [4]: > 100 µM
- GI50 [5]: 40.8 µM
- TGI [5]: > 100 µM
- GI50 [6]: 63 µM
- TGI [6]: > 100 µM
- GI50 [7]: 50.8 µM
- TGI [7]: > 100 µM
- GI50 [8]: 75.9 µM
- TGI [8]: > 100 µM
- GI50 [9]: 27.7 µM
- TGI [9]: 81.8 µM
- GI50 [10]: > 100 µM
- TGI [10]: > 100 µM
- GI50 [11]: 21.7 µM
- TGI [11]: > 100 µM
- GI50 [12]: 33.9 µM
- TGI [12]: > 100 µM
- GI50 [13]: 40 µM
- TGI [13]: > 100 µM
- GI50 [14]: 34.7 µM
- TGI [14]: > 100 µM
- GI50 [15]: 14.7 µM
- TGI [15]: 37.2 µM
- GI50 [16]: 28.2 µM
- TGI [16]: 78 µM
- GI50 [17]: 60.2 µM
- TGI [17]: > 100 µM
- GI50 [18]: 25.3 µM
- TGI [18]: 61.5 µM
- GI50 [19]: 26.2 µM
- TGI [19]: > 100 µM
- GI50 [20]: 18.2 µM
- TGI [20]: > 100 µM
- GI50 [21]: 26.8 µM
- TGI [21]: 84.6 µM
- GI50 [22]: 48.4 µM
- TGI [22]: > 100 µM
- GI50 [23]: 27.3 µM
- TGI [23]: > 100 µM
- GI50 [24]: > 100 µM
- TGI [24]: > 100 µM
- GI50 [25]: 26 µM
- TGI [25]: 89.7 µM
- GI50 [26]: 67.3 µM
- TGI [26]: > 100 µM
- GI50 [27]: 74.6 µM
- TGI [27]: > 100 µM
- GI50 [28]: 58.4 µM
- TGI [28]: > 100 µM
- GI50 [29]: 28 µM
- TGI [29]: 78.2 µM
- GI50 [30]: 25.7 µM
- TGI [30]: 90.1 µM
- GI50 [31]: 24.9 µM
- TGI [31]: 72.7 µM
- GI50 [32]: 51.9 µM
- TGI [32]: > 100 µM
- GI50 [33]: 68.9 µM
- TGI [33]: > 100 µM
- GI50 [34]: 38.3 µM
- TGI [34]: > 100 µM
- GI50 [35]: 62.2 µM
- TGI [35]: > 100 µM
- GI50 [36]: 16.9 µM
- TGI [36]: 51.6 µM
- GI50 [37]: 36.3 µM
- TGI [37]: > 100 µM
- GI50 [38]: 89.8 µM
- TGI [38]: > 100 µM
- GI50 [39]: 34.7 µM
- TGI [39]: > 100 µM
- GI50 [40]: 30.7 µM
- TGI [40]: > 100 µM
- GI50 [41]: > 100 µM
- TGI [41]: > 100 µM
- GI50 [42]: 30.5 µM
- TGI [42]: > 100 µM
- GI50 [43]: 17.3 µM
- TGI [43]: 50.3 µM
- GI50 [44]: 54.1 µM
- TGI [44]: > 100 µM
